Source: patent US20140064053A1, “NON-RESONANT TWO-PHOTON ABSORPTION MATERIAL, NON-RESONANT TWO-PHOTON ABSORPTION RECORDING MATERIAL, RECORDING MEDIUM, RECORDING/REPRODUCING METHOD AND NON-RESONANT TWO-PHOTON ABSORPTION COMPOUND” (FUJIFILM Corporation, priority 2011, published 2014)

Columns and labels:
[1] = Two-photon absorption cross-sectional area by the Z scanning method; type: physicochemical; conditions: measurement wavelength 405 nm; chloroform solution, about 1×10^−3 mol/l; 1 GM = 1 × 10^−50 cm^4 s molecule^−1 photon^−1
Protocol: The measurement of the two-photon absorption cross-sectional area of the synthesized compound was performed by the Z scanning method described in MANSOOR SHEIK-BAHAE et al., IEEE. Journal of Quantum Electronics, 1990, 26, 760. The Z scanning method is a method widely used as the measuring method of a non-linear optical constant, where in the vicinity of the focus of converged laser beam, a measurement sample is moved along the beam and the change in the quantity of transmitted light is recorded. Since the power density of incident light changes depending upon the position of the sample, when non-linear absorption is present, the quantity of transmitted light attenuates in the vicinity of the focus. The two-photon absorption cross-sectional area was computed by fitting the change in the quantity of transmitted light to a theoretical curve predicted from the incident light intensity, the light converging spot size, the sample thickness and the sample concentration. As the light source for the measurement of two-photon absorption cross-sectional area, a Ti:sapphire pulsed laser (pulse width: 100 fs, repetition: 80 MHz, average output: 1 W, peak power: 100 kW) obtained by combining a […] and a light parametric amplifier was used. As the sample for the measurement of two-photon absorption cross-sectional area, a solution obtained by dissolving the compound in chloroform in a concentration of about 1×10^−3 mol/l was used.
The two-photon absorption cross-sectional areas of Compounds D-1, D-2, D-6 and D-29 of the present invention and Comparative Compound R-1 [recited as Compound D-1 in Patent Document 5 (JP-A-2010-108588)] are shown in Table 1 below.

[2] = Evaluation of solubility of two-photon absorption compound in dichloromethane; type: physicochemical; conditions: invention compounds compared with Comparative Compound R-1
Protocol: Compounds D-1, D-2, D-6 and D-29 of the present invention and Comparative Compound R-1 for dichloromethane were evaluated for the solubility (room temperature).

Row | SMILES | Two-Photon Absorption Cross-Sectional Area [1] [GM] | Solubility (in words) [2]
1 | CCCCC(CC)COc1ccc(C(=O)c2ccc(-c3ccc(-c4ccc(-c5ccc(C#N)cc5)cc4)cc3)cc2)cc1 [Compound D-1] | 900 | high solubility
2 | COCCOCCOCCOCCOCCOc1ccc(C(=O)c2ccc(-c3ccc(-c4ccc(-c5ccc(C#N)cc5)cc4)cc3)cc2)cc1 [Compound D-2] | 860 | high solubility
3 | CCCCC(CC)COc1ccc(C(=O)c2ccc(-c3ccc(-c4ccc(-c5ccc(C#N)cc5)c(OC)c4)cc3OC)cc2)cc1 [Compound D-6] | 1140 | high solubility
4 | COc1cc(-c2ccc(-c3ccc(C(=O)c4ccc(OCCOCCOC(C)=O)c(OCCOCCOC(C)=O)c4)cc3)c(OC)c2)ccc1-c1ccc(C(=O)c2ccc(OCCOCCOC(C)=O)c(OCCOCCOC(C)=O)c2)cc1 [Compound D-29] | 2000 | high solubility
5 | N#Cc1ccc(-c2ccc(-c3ccc(-c4ccc(C(=O)c5ccccc5)cc4)cc3)cc2)cc1 [Compound R-1, reference compound] | 1700 | low
